From patent publication US11912686B2 (Gilead Sciences, Inc., priority 2020, dated 2024)

Biological target: human LPAR1 (Homo sapiens (Human), UniProt Q92633)
Experiment: LPAR1 intracellular calcium mobilization assay (antagonist mode, FLIPR)
Format: cell-based
Conditions: CHO-K1 EDG2 cells expressing human LPAR1, LPA 18:2 at EC80 (100 nM), test compound 0.5 nM to 10 μM

human LPAR1, sequence (Q92633 whole entry): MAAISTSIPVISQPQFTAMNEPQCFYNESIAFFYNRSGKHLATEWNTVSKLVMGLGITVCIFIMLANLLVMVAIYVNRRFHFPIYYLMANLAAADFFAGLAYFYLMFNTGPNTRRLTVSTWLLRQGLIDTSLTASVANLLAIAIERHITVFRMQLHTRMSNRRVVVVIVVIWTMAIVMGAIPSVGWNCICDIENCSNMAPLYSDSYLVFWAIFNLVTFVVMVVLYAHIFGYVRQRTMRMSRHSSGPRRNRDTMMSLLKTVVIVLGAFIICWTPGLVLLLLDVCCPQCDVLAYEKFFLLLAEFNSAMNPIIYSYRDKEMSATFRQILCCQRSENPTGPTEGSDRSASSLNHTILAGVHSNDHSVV

Question: Which EC50 does the source give for `CO[C@]1(C#N)C[C@H](C(=O)Nc2ccc(-c3nnn(C)c3NC(=O)O[C@H](C)c3cccnc3Cl)nc2)C1` [Compound 138, (R)-1-(2-chloropyridin-3-yl)ethyl (4-(5-((1s,3S)-3-cyano-3-methoxycyclobutane-1-carboxamido)pyridin-2-yl)-1-methyl-1H-1,2,3-triazol-5-yl)carbamate] here?
Answer: 84.9 nM

Question: With `C[C@@H](OC(=O)Nc1c(-c2ccc(NC(=O)C3CC(=O)C3)cn2)nnn1C)c1cccnc1Cl` [Compound 83, (R)-1-(2-chloropyridin-3-yl)ethyl (1-methyl-4-(5-(3-oxocyclobutane-1-carboxamido)pyridin-2-yl)-1H-1,2,3-triazol-5-yl)carbamate] as the compound, how does the EC50 read?
Answer: 344 nM

Question: `C[C@@H](OC(=O)Nc1c(-c2ccc(NC(=O)c3cnc(C(F)(F)F)nc3)c(F)n2)nnn1C)c1cccnc1Cl` [Compound 318, (R)-1-(2-chloropyridin-3-yl)ethyl (4-(6-fluoro-5-(2-(trifluoromethyl)pyrimidine-5-carboxamido)pyridin-2-yl)-1-methyl-1H-1,2,3-triazol-5-yl)carbamate] was tested. Which EC50 did it give?
Answer: 9.5 nM

Question: How did the EC50 turn out when `C[C@@H](OC(=O)Nc1c(-c2ccc(NC(=O)C(F)F)cn2)nnn1C)c1cccnc1Cl` [Compound 36, (R)-1-(2-chloropyridin-3-yl)ethyl (4-(5-(2,2-difluoroacetamido)pyridin-2-yl)-1-methyl-1H-1,2,3-triazol-5-yl)carbamate] was run?
Answer: 112 nM

Question: How did the EC50 turn out when `C[C@@H](OC(=O)Nc1c(-c2ccc(NC(=O)C3(C(F)(F)F)CC3)cn2)nnn1C)c1cccnc1Cl` [Compound 55, (R)-1-(2-chloropyridin-3-yl)ethyl (1-methyl-4-(5-(1-(trifluoromethyl)cyclopropane-1-carboxamido)pyridin-2-yl)-1H-1,2,3-triazol-5-yl)carbamate] was run?
Answer: 478 nM

Question: With `C[C@@H](OC(=O)Nc1c(-c2ccc(NC(=O)c3cnc(N4CCOCC4)nc3)cn2)nnn1C)c1cc(F)cnc1F` [Compound 284, (R)-1-(2,5-difluoropyridin-3-yl)ethyl (1-methyl-4-(5-(2-morpholinopyrimidine-5-carboxamido)pyridin-2-yl)-1H-1,2,3-triazol-5-yl)carbamate] as the compound, how does the EC50 read?
Answer: 908 nM

Question: With `CCOC(=O)Nc1ccc(-c2nnn(C)c2NC(=O)O[C@H](C)c2cccnc2Cl)nc1` [Compound 21, (R)-1-(2-chloropyridin-3-yl)ethyl (4-(5-((ethoxycarbonyl)amino)pyridin-2-yl)-1-methyl-1H-1,2,3-triazol-5-yl)carbamate] as the compound, how does the EC50 read?
Answer: 39.6 nM

Question: With `C[C@H](C#N)C(=O)Nc1ccc(-c2nnn(C)c2NC(=O)O[C@H](C)c2cccnc2Cl)nc1` [Compound 203, (R)-1-(2-chloropyridin-3-yl)ethyl (4-(5-((R)-2-cyanopropanamido)pyridin-2-yl)-1-methyl-1H-1,2,3-triazol-5-yl)carbamate] as the compound, how does the EC50 read?
Answer: 94.8 nM

Question: `C[C@@H](OC(=O)Nc1c(-c2ccc(NC(=O)[C@@H]3C[C@H]3C#N)cn2)nnn1C)c1cc(F)cnc1Cl` (mixture of isomers) [Compound 285, (R)-1-(2-chloro-5-fluoropyridin-3-yl)ethyl (4-(5-((1RS,2RS)-2-cyanocyclopropane-1-carboxamido)pyridin-2-yl)-1-methyl-1H-1,2,3-triazol-5-yl)carbamate] was tested. Which EC50 did it give?
Answer: 71.8 nM

Question: For `C[C@@H](OC(=O)Nc1c(-c2ccc(NC(=O)[C@H]3C[C@](O)(C#N)C3)cn2)nnn1C)c1cccnc1Cl` [Compound 140, (R)-1-(2-chloropyridin-3-yl)ethyl (4-(5-((1s,3S)-3-cyano-3-hydroxycyclobutane-1-carboxamido)pyridin-2-yl)-1-methyl-1H-1,2,3-triazol-5-yl)carbamate], which EC50 is on record?
Answer: 349 nM

Question: With `C[C@@H](OC(=O)Nc1c(-c2ccc(NC(=O)c3ccc(C(F)(F)F)nc3)cn2)nnn1C)c1cc(F)cnc1F` [Compound 242, (R)-1-(2,5-difluoropyridin-3-yl)ethyl (1-methyl-4-(5-(6-(trifluoromethyl)nicotinamido)pyridin-2-yl)-1H-1,2,3-triazol-5-yl)carbamate] as the compound, how does the EC50 read?
Answer: 63.3 nM

Question: `C[C@@H](OC(=O)Nc1c(-c2ccc(NC(=O)c3cnc4cnn(C)c4c3)cn2)nnn1C)c1cc(F)cnc1F` [Compound 278, (R)-1-(2,5-difluoropyridin-3-yl)ethyl (1-methyl-4-(5-(1-methyl-1H-pyrazolo[4,3-b]pyridine-6-carboxamido)pyridin-2-yl)-1H-1,2,3-triazol-5-yl)carbamate] was tested. Which EC50 did it give?
Answer: 810 nM

Question: Which EC50 does the source give for `C[C@@H](OC(=O)Nc1c(-c2ccc(NC(=O)C3CCC3(F)F)cn2)nnn1C)c1cccnc1Cl` (stereo partly drawn) [Compound 63, (R)-1-(2-chloropyridin-3-yl)ethyl (4-(5-(2,2-difluorocyclobutane-1-carboxamido)pyridin-2-yl)-1-methyl-1H-1,2,3-triazol-5-yl)carbamate] here?
Answer: 120 nM

Question: How did the EC50 turn out when `C[C@@H](OC(=O)Nc1c(-c2ccc(NC(=O)C3(C#N)CC(F)(F)C3)cn2)nnn1C)c1cccnc1Cl` [Compound 186, (R)-1-(2-chloropyridin-3-yl)ethyl (4-(5-(1-cyano-3,3-difluorocyclobutane-1-carboxamido)pyridin-2-yl)-1-methyl-1H-1,2,3-triazol-5-yl)carbamate] was run?
Answer: 100 nM

Question: How did the EC50 turn out when `C[C@@H](OC(=O)Nc1c(-c2ccc(NC(=O)c3cnc(C(F)(F)F)nc3)cn2)nnn1C)c1cc(F)cnc1Cl` [Compound 290, (R)-1-(2-chloro-5-fluoropyridin-3-yl)ethyl (1-methyl-4-(5-(2-(trifluoromethyl)pyrimidine-5-carboxamido)pyridin-2-yl)-1H-1,2,3-triazol-5-yl)carbamate] was run?
Answer: 10.9 nM

Question: How did the EC50 turn out when `C[C@@H](OC(=O)Nc1c(-c2ccc(NC(=O)c3cnc(C(F)(F)F)nc3)cn2)nnn1C)c1cc(F)cnc1F` [Compound 251, (R)-1-(2,5-difluoropyridin-3-yl)ethyl (1-methyl-4-(5-(2-(trifluoromethyl)pyrimidine-5-carboxamido)pyridin-2-yl)-1H-1,2,3-triazol-5-yl)carbamate] was run?
Answer: 38.5 nM

Question: `C[C@@H](OC(=O)Nc1c(-c2ncc(NC(=O)C3(C#N)CC3)cc2F)nnn1C)c1cc(F)cnc1F` [Compound 336, (R)-1-(2,5-difluoropyridin-3-yl)ethyl (4-(5-(1-cyanocyclopropane-1-carboxamido)-3-fluoropyridin-2-yl)-1-methyl-1H-1,2,3-triazol-5-yl)carbamate] was tested. Which EC50 did it give?
Answer: 258 nM

Question: For `C[C@@H](OC(=O)Nc1c(-c2ccc(NC(=O)C3CS(=O)(=O)C3)cn2)nnn1C)c1cccnc1Cl` [Compound 43, (R)-1-(2-chloropyridin-3-yl)ethyl (4-(5-(1,1-dioxidothietane-3-carboxamido)pyridin-2-yl)-1-methyl-1H-1,2,3-triazol-5-yl)carbamate], which EC50 is on record?
Answer: 497 nM

Question: For `C[C@@H](OC(=O)Nc1c(-c2ccc(NC(=O)[C@H]3C[C@H](NCC(F)(F)F)C3)cn2)nnn1C)c1cccnc1Cl` [Compound 306, (R)-1-(2-chloropyridin-3-yl)ethyl (1-methyl-4-(5-((1r,3R)-3-((2,2,2-trifluoroethyl)amino)cyclobutane-1-carboxamido)pyridin-2-yl)-1H-1,2,3-triazol-5-yl)carbamate], which EC50 is on record?
Answer: 99.7 nM

Question: For `C[C@@H](OC(=O)Nc1c(-c2ccc(NC(=O)c3ccnc(N)c3)cn2)nnn1C)c1cc(F)cnc1F` [Compound 232, (R)-1-(2,5-difluoropyridin-3-yl)ethyl (4-(5-(2-aminoisonicotinamido)pyridin-2-yl)-1-methyl-1H-1,2,3-triazol-5-yl)carbamate], which EC50 is on record?
Answer: 1110 nM

Question: For `C[C@@H](OC(=O)Nc1c(-c2ccc(NC(=O)[C@H]3C[C@]4(CC4(F)F)C3)cn2)nnn1C)c1cccnc1Cl` [Compound 86, (R)-1-(2-chloropyridin-3-yl)ethyl (4-(5-((3S,5s)-1,1-difluorospiro[2.3]hexane-5-carboxamido)pyridin-2-yl)-1-methyl-1H-1,2,3-triazol-5-yl)carbamate], which EC50 is on record?
Answer: 16.6 nM

Question: With `C[C@@H](OC(=O)Nc1c(-c2ncc(NC(=O)[C@@]3(C#N)C[C@@H]3C(F)F)cn2)nnn1C)c1cc(F)cnc1Cl` [Compound 287, (R)-1-(2-chloro-5-fluoropyridin-3-yl)ethyl (4-(5-((1S,2S)-1-cyano-2-(difluoromethyl)cyclopropane-1-carboxamido)pyrimidin-2-yl)-1-methyl-1H-1,2,3-triazol-5-yl)carbamate] as the compound, how does the EC50 read?
Answer: 1430 nM

Question: For `C[C@@H](OC(=O)Nc1c(-c2cnc(NC(=O)c3ccc(Cl)nc3)cn2)nnn1C)c1cc(F)cnc1F` [Compound 320, (R)-1-(2,5-difluoropyridin-3-yl)ethyl (4-(5-(6-chloronicotinamido)pyrazin-2-yl)-1-methyl-1H-1,2,3-triazol-5-yl)carbamate], which EC50 is on record?
Answer: 131 nM

Question: How did the EC50 turn out when `C[C@@H](OC(=O)Nc1c(-c2ccc(NC(=O)C3CC34CC4)cn2)nnn1C)c1cccnc1Cl` (stereo partly drawn) [Compound 149, (R)-1-(2-chloropyridin-3-yl)ethyl (1-methyl-4-(5-(spiro[2.2]pentane-1-carboxamido)pyridin-2-yl)-1H-1,2,3-triazol-5-yl)carbamate] was run?
Answer: 329 nM

Question: With `C[C@@H](OC(=O)Nc1c(-c2ccc(NC(=O)C3(C(F)F)COC3)cn2)nnn1C)c1cc(F)cnc1F` [Compound 214, (R)-1-(2,5-difluoropyridin-3-yl)ethyl (4-(5-(3-(difluoromethyl)oxetane-3-carboxamido)pyridin-2-yl)-1-methyl-1H-1,2,3-triazol-5-yl)carbamate] as the compound, how does the EC50 read?
Answer: 357 nM

Question: For `C[C@@H](OC(=O)Nc1c(-c2ccc(NC(=O)CC(F)F)cn2)nnn1C)c1cccnc1Cl` [Compound 107, (R)-1-(2-chloropyridin-3-yl)ethyl (4-(5-(3,3-difluoropropanamido)pyridin-2-yl)-1-methyl-1H-1,2,3-triazol-5-yl)carbamate], which EC50 is on record?
Answer: 10000 nM

Question: How did the EC50 turn out when `Cc1cnc(F)cc1C(C)OC(=O)Nc1c(-c2ccc(NC(=O)C3(C#N)CC3)cn2)nnn1C` (stereo not drawn) [Compound 27, 1-(2-fluoro-5-methylpyridin-4-yl)ethyl (4-(5-(1-cyanocyclopropane-1-carboxamido)pyridin-2-yl)-1-methyl-1H-1,2,3-triazol-5-yl)carbamate] was run?
Answer: 1280 nM
